The values that follow come from patent US11186564B2, “Dual NAV1.2/5HT2a inhibitors for treating CNS disorders” (Sunovion Pharmaceuticals Inc., priority 2016, dated 2021).

For orientation: IC50 means the concentration at which inhibition is half-maximal.

Read-outs that look alike come from different tables or passages of the source. Where only a bound is given, the exact number is not on record here.

Test [1] addresses human sodium channel NaV1.2 (Homo sapiens, UniProt Q99250). The test can be described thus: NaV1.2 inhibition, automated patch-clamp (Q-Patch HTX), slow inactivated state (state C). The test is classed as cell-based. To be noted: hNaV1.2 CHO cells, slow inactivated state; for inhibition at 1 µM: 1 μM compound, read-out: NaV1.2 (% inh), 1 μM; for IC50: read-out: NaV1.2 IC50; for inhibition at 10 µM: 10 μM compound, read-out: NaV1.2 (% inh), 10 μM. In outline:
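CHO K-1 cells stably expressing human NaV1.2, whole-cell automated patch clamp, holding −100 mV; slow-inactivated state (state C) read at a 5 ms step to 0 mV after 10 s at −50 mV and 15 ms at −90 mV. Percent inhibition vs vehicle; IC50 by nonlinear least-squares fit.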
In general terms: Patch clamp records ionic current or voltage across a cell membrane.

In test [2] the target is T1, recombinant human serotonin receptor 5-HT2A (Homo sapiens, UniProt P28223).
T1 construct: expressed in transfected cells; method B: loaded with Ca2+ dye
The test can be described thus: 5-HT2A antagonist Ca2+ assay in CHO-K1 cells (method A aequorin luminescence / method B FLIPR fluorescence). The format is cell-based. To be noted: antagonist mode vs EC80 of reference agonist, method A or B. An outline of the steps: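 Method A: CHO-K1 cells co-expressing human 5-HT2A and mitochondrial apoaequorin were given reference agonist at EC80 15 min after compound, with luminescence read. Method B: dye-loaded 5-HT2A CHO-K1 cells were pretreated with compound, then given serotonin at EC80, with FLIPR fluorescence read. IC50s came from nonlinear fits of percent inhibition.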

Sequence of human sodium channel NaV1.2 (Q99250 whole entry): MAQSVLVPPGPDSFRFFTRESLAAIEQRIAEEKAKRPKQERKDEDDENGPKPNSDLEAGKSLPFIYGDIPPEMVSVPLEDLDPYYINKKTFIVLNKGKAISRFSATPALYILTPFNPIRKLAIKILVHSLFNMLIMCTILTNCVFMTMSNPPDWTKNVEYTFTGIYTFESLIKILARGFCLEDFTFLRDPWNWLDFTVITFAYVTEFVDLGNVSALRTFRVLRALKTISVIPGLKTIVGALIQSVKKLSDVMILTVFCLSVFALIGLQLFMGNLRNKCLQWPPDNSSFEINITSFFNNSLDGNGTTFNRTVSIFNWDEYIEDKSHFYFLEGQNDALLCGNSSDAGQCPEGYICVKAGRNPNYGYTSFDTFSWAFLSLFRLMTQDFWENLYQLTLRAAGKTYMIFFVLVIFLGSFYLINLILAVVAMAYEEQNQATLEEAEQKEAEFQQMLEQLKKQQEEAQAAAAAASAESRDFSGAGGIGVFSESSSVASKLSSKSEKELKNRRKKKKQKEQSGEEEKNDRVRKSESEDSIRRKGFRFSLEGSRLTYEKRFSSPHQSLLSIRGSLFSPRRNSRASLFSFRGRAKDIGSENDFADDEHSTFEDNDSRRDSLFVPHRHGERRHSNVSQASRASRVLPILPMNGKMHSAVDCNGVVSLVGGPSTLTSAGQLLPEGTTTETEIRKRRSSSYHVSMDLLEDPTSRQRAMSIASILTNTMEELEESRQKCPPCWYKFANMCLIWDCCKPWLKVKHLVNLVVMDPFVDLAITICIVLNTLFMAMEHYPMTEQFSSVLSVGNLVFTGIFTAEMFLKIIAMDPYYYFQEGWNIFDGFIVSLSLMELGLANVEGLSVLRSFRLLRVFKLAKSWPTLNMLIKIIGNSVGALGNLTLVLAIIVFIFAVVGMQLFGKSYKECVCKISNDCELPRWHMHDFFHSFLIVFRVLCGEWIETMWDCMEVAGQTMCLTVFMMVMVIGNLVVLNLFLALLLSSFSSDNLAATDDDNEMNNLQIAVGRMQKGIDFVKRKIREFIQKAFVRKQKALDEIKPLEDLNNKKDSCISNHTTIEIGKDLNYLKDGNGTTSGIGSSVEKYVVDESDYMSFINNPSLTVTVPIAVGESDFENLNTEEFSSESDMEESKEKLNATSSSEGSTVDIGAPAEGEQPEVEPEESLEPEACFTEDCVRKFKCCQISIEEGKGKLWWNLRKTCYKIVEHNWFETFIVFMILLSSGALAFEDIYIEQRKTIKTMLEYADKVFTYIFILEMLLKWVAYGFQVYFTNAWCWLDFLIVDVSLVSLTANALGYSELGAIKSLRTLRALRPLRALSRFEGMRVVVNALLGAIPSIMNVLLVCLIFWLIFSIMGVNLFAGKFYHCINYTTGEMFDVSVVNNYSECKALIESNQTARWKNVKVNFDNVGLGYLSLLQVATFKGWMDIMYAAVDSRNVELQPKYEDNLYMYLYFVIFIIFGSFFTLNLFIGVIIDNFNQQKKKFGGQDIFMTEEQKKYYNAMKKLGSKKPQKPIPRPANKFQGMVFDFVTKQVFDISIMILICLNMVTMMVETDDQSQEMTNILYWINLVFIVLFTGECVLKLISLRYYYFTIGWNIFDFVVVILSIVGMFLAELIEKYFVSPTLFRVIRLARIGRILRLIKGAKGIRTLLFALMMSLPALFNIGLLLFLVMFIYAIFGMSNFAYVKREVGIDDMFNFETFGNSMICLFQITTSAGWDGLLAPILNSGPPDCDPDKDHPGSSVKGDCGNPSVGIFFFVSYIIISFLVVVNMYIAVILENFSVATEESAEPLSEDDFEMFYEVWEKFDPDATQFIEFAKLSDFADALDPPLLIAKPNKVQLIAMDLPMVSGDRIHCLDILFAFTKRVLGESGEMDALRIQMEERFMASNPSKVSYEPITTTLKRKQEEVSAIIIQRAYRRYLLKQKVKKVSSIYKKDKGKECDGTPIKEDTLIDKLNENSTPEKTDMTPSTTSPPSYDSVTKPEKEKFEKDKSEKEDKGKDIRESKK
T1 sequence (P28223 whole entry): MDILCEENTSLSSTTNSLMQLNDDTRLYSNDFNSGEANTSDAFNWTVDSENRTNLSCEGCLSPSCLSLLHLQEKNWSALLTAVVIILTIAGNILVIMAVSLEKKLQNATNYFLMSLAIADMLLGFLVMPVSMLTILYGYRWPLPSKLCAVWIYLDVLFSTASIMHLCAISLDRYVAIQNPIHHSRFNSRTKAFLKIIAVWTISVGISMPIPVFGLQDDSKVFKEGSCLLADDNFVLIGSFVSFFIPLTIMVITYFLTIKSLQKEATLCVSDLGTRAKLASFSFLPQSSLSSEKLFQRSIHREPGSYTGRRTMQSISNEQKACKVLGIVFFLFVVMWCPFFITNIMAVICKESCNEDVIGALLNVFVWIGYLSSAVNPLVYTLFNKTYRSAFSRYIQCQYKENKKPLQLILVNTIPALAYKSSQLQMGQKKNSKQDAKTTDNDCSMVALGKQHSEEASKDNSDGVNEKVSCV

On to `c1ccc(CC2CN(CC3CCc4ccccc43)CCO2)cc1` (stereo not shown) [Example 251, 2-benzyl-4-((2,3-dihydro-1H-inden-1-yl)methyl)morpholine], for which, in test [1], the inhibition at 1 µM came out at 23%. The 50% inhibitory concentration (IC50) in test [2] (read-out: 5HT2A IC50) was 0.37 µM.
The matching figures for `Fc1ccc(O[C@@H]2CCCN(CC3CCc4ccccc43)C2)cc1` (stereo partly drawn) [Example 253, (3R)-1-((2,3-dihydro-1H-inden-1-yl)methyl)-3-(4-fluorophenoxy) piperidine]: 21% and 1.17 µM.
Regarding `Fc1ccc(O[C@H]2CCCN(CC3CCc4ccccc43)C2)cc1` (stereo partly drawn) [Example 254, (3S)-1-((2,3-dihydro-1H-inden-1-yl)methyl)-3-(4-fluorophenoxy)piperidine], the figures for the IC50 in test [1] and in test [2] (read-out: 5HT2A IC50) were 770 nM and 0.52 µM, respectively.
Turning to `COc1ccc2c(c1)C(CN1CCC[C@@H](Oc3ccc(F)cc3)C1)CC2` (stereo partly drawn) [Example 255, (3R)-3-(4-fluorophenoxy)-1-((6-methoxy-2,3-dihydro-1H-inden-1-yl)methyl)piperidine], the inhibition at 1 µM in test [1] was determined as 14%. Besides, the IC50 in test [2] (read-out: 5HT2A IC50) came to 0.36 µM.
The corresponding values for `Fc1ccc(O[C@H]2CCCN(CC3COCc4ccccc43)C2)cc1` (stereo partly drawn) [Example 261, (3S)-3-(4-fluorophenoxy)-1-(isochroman-4-ylmethyl)piperidine] are 22% and 0.35 µM.
On to `CN1CCN(CC2CCc3ccccc32)CC1COc1ccc(F)cc1` (stereo not shown) [Example 270, 4-((2,3-dihydro-1H-inden-1-yl)methyl)-2-((4-fluorophenoxy)methyl)-1-methylpiperazine], for which the inhibition at 1 µM in test [1] stood at 56%. In addition, the IC50 in test [2] (read-out: 5HT2A IC50) was found to be 0.11 µM.
Turning to `Fc1ccc(OC2CCCN(CC3CCc4ccccc43)CC2)cc1` (stereo not shown) [Example 271, 1-((2,3-dihydro-1H-inden-1-yl)methyl)-4-(4-fluorophenoxy)azepane], the inhibition at 1 µM in test [1] came out at 44%. For the same molecule, in test [2] (read-out: 5HT2A IC50), the IC50 is 0.23 µM.
As for `Fc1ccc(OC2CCCN(CC3COc4ccccc43)CC2)cc1` (stereo not shown) [Example 272, 1-((2,3-dihydrobenzofuran-3-yl)methyl)-4-(4-fluorophenoxy)azepane], the IC50 in test [1] was found to be 830 nM; in test [2] (read-out: 5HT2A IC50), 0.01 µM.
On to `O=C1c2ccccc2CCN1CCN1CCCC(Oc2ccc(F)cc2)CC1` (stereo not shown) [Example 274, 2-(2-(4-(4-fluorophenoxy)azepan-1-yl)ethyl)-3,4-dihydroisoquinolin-1(2H)-one], for which the inhibition at 1 µM in test [1] amounted to 27%. Also, in test [2] (read-out: 5HT2A IC50), the concentration for half-maximal inhibition (IC50) worked out at 0.19 µM.
The corresponding values for `Fc1ccc(OC2CCCCN(CC3CCc4ccccc43)C2)cc1` (stereo not shown) [Example 275, 1-((2,3-dihydro-1H-inden-1-yl)methyl)-3-(4-fluorophenoxy)azepane] are 2% and 0.4 µM.
For the molecule `Fc1ccc(OC2COCCN(CC3CCc4ccccc43)C2)cc1` (stereo not shown) [Example 276, 4-((2,3-dihydro-1H-inden-1-yl)methyl)-6-(4-fluorophenoxy)-1,4-oxazepane], the IC50 in test [1] stood at 440 nM; in test [2] (read-out: 5HT2A IC50), 0.4 µM.
Consider `CN1CCN(CC2CCc3ccccc32)CC(Oc2ccc(F)cc2)C1` (stereo not shown) [Example 277, 1-((2,3-dihydro-1H-inden-1-yl)methyl)-6-(4-fluorophenoxy)-4-methyl-1,4-diazepane], for which the inhibition at 1 µM in test [1] was 31%. The half-maximal inhibitory concentration (IC50) in test [2] (read-out: 5HT2A IC50) came to 0.1 µM.
For `OC(COC1CCCCC1)CN1[C@@H]2C[C@H]1CN(c1ccccc1)C2` (stereo partly drawn) [Example 281, 1-(cyclohexyloxy)-3-((1R,5S)-3-phenyl-3,6-diazabicyclo[3.1.1]heptan-6-yl)propan-2-ol], the IC50 is 1790 nM in test [1] and 1.36 µM in test [2] (read-out: 5HT2A IC50).
On to `OC(COC1CCCCC1)CN1[C@@H]2CC[C@H]1CN(c1ccccc1)C2` (stereo partly drawn) [Example 286, 1-(cyclohexyloxy)-3-((1R,5S)-3-phenyl-3,8-diazabicyclo[3.2.1]octan-8-yl)propan-2-ol], for which the IC50 came to 1250 nM in test [1] and 0.01 µM in test [2] (5HT2A IC50, μM).
The matching figures for `O[C@H](COC1CCCCC1)CN1[C@@H]2CC[C@H]1CN(c1ccccc1)C2` [Example 287, (S)-1-(cyclohexyloxy)-3-((1R,5S)-3-phenyl-3,8-diazabicyclo[3.2.1]octan-8-yl)propan-2-ol]: 580 nM and 0.03 µM.
The matching figures for `O[C@@H](COC1CCCCC1)CN1[C@@H]2CC[C@H]1CN(c1ccccc1)C2` [Example 288, (R)-1-(cyclohexyloxy)-3-((1R,5S)-3-phenyl-3,8-diazabicyclo[3.2.1]octan-8-yl)propan-2-ol]: 440 nM and 0.04 µM.
Consider `OC(COC1CCCCC1)CN1C[C@H]2C[C@@H](C1)N2c1ccccc1` (stereo partly drawn) [Example 294, 1-(cyclohexyloxy)-3-((1R,5S)-6-phenyl-3,6-diazabicyclo[3.1.1]heptan-3-yl)propan-2-ol], for which the inhibition at 10 µM in test [1] was found to be 47%. Moreover, the concentration for half-maximal inhibition (IC50) in test [2] (read-out: 5HT2A IC50) came out at 0.28 µM.
For the molecule `c1ccc(N2[C@@H]3CC[C@H]2CN(CC2CCc4ccccc42)C3)cc1` (stereo partly drawn) [Example 295, (1R,5S)-3-((2,3-dihydro-1H-inden-1-yl)methyl)-8-phenyl-3,8-diazabicyclo[3.2.1]octane], the inhibition at 1 µM in test [1] came out at 2%. Moreover, the concentration for half-maximal inhibition (IC50) in test [2] (read-out: 5HT2A IC50) is greater than 16.7 µM.
The corresponding values for `O=C1c2ccccc2CCN1CCN1C[C@H]2CC[C@@H](C1)N2c1ccccc1` [Example 297, 2-(2-((1R,5S)-8-phenyl-3,8-diazabicyclo[3.2.1]octan-3-yl)ethyl)-3,4-dihydroisoquinolin-1(2H)-one] are -4% and greater than 16.7 µM.
Turning to `OC(COC1CCCCC1)CN1C[C@H]2CC[C@@H](C1)N2c1ccccc1` (stereo partly drawn) [Example 299, 1-(cyclohexyloxy)-3-((1R,5S)-8-phenyl-3,8-diazabicyclo[3.2.1]octan-3-yl)propan-2-ol], the IC50 in test [1] came out at 3570 nM; in test [2] (read-out: 5HT2A IC50) it was 1.72 µM.
For the molecule `c1ccc(N2C[C@@H]3C[C@H]2CN3CC2CCc3ccccc32)cc1` (stereo partly drawn) [Example 303, (1S,4S)-2-((2,3-dihydro-1H-inden-1-yl)methyl)-5-phenyl-2,5-diazabicyclo[2.2.1]heptane], the half-inhibitory concentration (IC50) in test [1] was found to be 1820 nM; in test [2] (read-out: 5HT2A IC50), 2.6 µM.
With `O=C1c2ccccc2CCN1CCN1C[C@@H]2C[C@H]1CN2c1ccccc1` [Example 304, 2-(2-((1S,4S)-5-phenyl-2,5-diazabicyclo[2.2.1]heptan-2-yl)ethyl)-3,4-dihydroisoquinolin-1(2H)-one], the inhibition at 1 µM in test [1] is 4%. Also, in test [2] (read-out: 5HT2A IC50), the IC50 was found to be 7.05 µM.
Consider `OC(COC1CCCCC1)CN1C[C@@H]2C[C@H]1CN2c1ccccc1` (stereo partly drawn) [Example 306, 1-(cyclohexyloxy)-3-((1S,4S)-5-phenyl-2,5-diazabicyclo[2.2.1]heptan-2-yl)propan-2-ol], for which, in test [1], the inhibition at 10 µM stood at 60%. In addition, the IC50 in test [2] (read-out: 5HT2A IC50) is 1.66 µM.
The corresponding values for `O[C@@H](COC1CCCCC1)CN1C[C@@H]2C[C@H]1CN2Cc1ccccc1` [Example 308, (R)-1-((1S,4S)-5-benzyl-2,5-diazabicyclo[2.2.1]heptan-2-yl)-3-(cyclohexyloxy)propan-2-ol] are 27% and 4.02 µM.
The matching figures for `O[C@H](COC1CCCCC1)CN1C[C@@H]2C[C@H]1CN2Cc1ccccc1` [Example 309, (S)-1-((1S,4S)-5-benzyl-2,5-diazabicyclo[2.2.1]heptan-2-yl)-3-(cyclohexyloxy)propan-2-ol]: 52% and 4.81 µM.
Take `c1ccc(N2C[C@@H]3CC[C@H]2CN3CCC2COCc3ccccc32)cc1` (stereo partly drawn) [Example 315, (1S,4S)-2-(2-(isochroman-4-yl)ethyl)-5-phenyl-2,5-diazabicyclo[2.2.2]octane]: the inhibition at 1 µM in test [1] is 5%. In addition, the IC50 in test [2] (read-out: 5HT2A IC50) stood at 5.28 µM.
In the case of `O=C1c2ccccc2CCN1CCN1C[C@@H]2CC[C@H]1CN2c1ccccc1` [Example 316, 2-(2-((1S,4S)-5-phenyl-2,5-diazabicyclo[2.2.2]octan-2-yl)ethyl)-3,4-dihydroisoquinolin-1(2H)-one], the IC50 in test [1] was determined as 80 nM; in test [2] (read-out: 5HT2A IC50) it was 3.17 µM.
As to `OC(COC1CCCCC1)CN1C[C@@H]2CC[C@H]1CN2c1ccccc1` (stereo partly drawn) [Example 317, 1-(cyclohexyloxy)-3-((1S,4S)-5-phenyl-2,5-diazabicyclo[2.2.2]octan-2-yl)propan-2-ol], the IC50 in test [1] was 1830 nM; in test [2] (read-out: 5HT2A IC50), 0.49 µM.
As to `OC(COC1CCCCC1)CN1C[C@H]2C[C@@H]1CN(Cc1ccccc1)C2` (stereo partly drawn) [Example 318, 1-((1S,5R)-3-benzyl-3,6-diazabicyclo[3.2.1]octan-6-yl)-3-(cyclohexyloxy)propan-2-ol], the inhibition at 10 µM in test [1] was determined as 48%. The IC50 in test [2] (read-out: 5HT2A IC50) was greater than 5.3 µM.
On to `COc1ccc2c(c1)C(CN1CC[C@@H]3C[C@H]1CN3c1ccccc1)CC2` (stereo partly drawn) [Example 319, (1S,5R)-2-((6-methoxy-2,3-dihydro-1H-inden-1-yl)methyl)-6-phenyl-2,6-diazabicyclo[3.2.1]octane], for which the concentration for half-maximal inhibition (IC50) worked out at 40 nM in test [1] and 1.21 µM in test [2] (read-out: 5HT2A IC50).
The corresponding values for `OC(COC1CCCCC1)CN1CC[C@H]2C[C@@H]1CN2c1ccccc1` (stereo partly drawn) [Example 325, 1-(cyclohexyloxy)-3-((1R,5S)-6-phenyl-2,6-diazabicyclo[3.2.1]octan-2-yl)propan-2-ol] are 220 nM and 0.25 µM.
With `COc1ccc2c(c1)C(CN1CC3CC(C1)N(c1ccccc1)C3)CC2` (stereo not shown) [Example 328, 3-((6-methoxy-2,3-dihydro-1H-inden-1-yl)methyl)-6-phenyl-3,6-diazabicyclo[3.2.1]octane], the inhibition at 1 µM in test [1] came to 31%. Moreover, in test [2] (read-out: 5HT2A IC50), the half-maximal inhibitory concentration (IC50) amounted to 5.31 µM.
